Here are results for 12 compounds from PubChem BioAssay (NCI).

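Following 48 hours of exposure in 96-well plates, responses at five concentrations were used to interpolate endpoints linearly. The concentration for 50% growth inhibition is given as GI50. TGI denotes the concentration required for complete inhibition of growth.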

Test systems include SF-268 CNS; MOLT-4 leukemia; SNB-19 CNS; RPMI-8226 leukemia; EKVX NSCLC; OVCAR-3 ovarian; MDA-MB-435; SK-MEL-2 melanoma; MALME-3M melanoma; SW-620 colon.
What all share (assay): inhibition of tumour cell growth, NCI panel, 48 h

Consider `CN(C)c1ccc(/C=C2\N=C(c3ccccc3)N(c3cc(C(F)(F)F)ccc3Cl)C2=O)cc1`, for which the GI50 is greater than 100 µM in the assay with SF-268 CNS; greater than 100 µM in the assay with MOLT-4 leukemia; greater than 100 µM in the assay with SNB-19 CNS; 35.7 µM in the assay with RPMI-8226 leukemia; greater than 100 µM in the assay with EKVX NSCLC; greater than 78.5 µM in the assay on OVCAR-3 ovarian. Moreover, the GI50 in the assay on MDA-MB-435, in the assay on SK-MEL-2 melanoma, in the assay on MALME-3M melanoma and with SW-620 colon was greater than 100 µM each time. Moreover, the TGI with SF-268 CNS, in the assay on MOLT-4 leukemia, in the assay with SNB-19 CNS, in the assay with RPMI-8226 leukemia, in the assay with EKVX NSCLC and in the assay with OVCAR-3 ovarian was greater than 100 µM throughout. Also, the TGI in the assay on MDA-MB-435, in the assay on SK-MEL-2 melanoma, in the assay with MALME-3M melanoma and in the assay with SW-620 colon was greater than 100 µM each time.

Turning to `C#CCNC(=S)N/N=C(\C)c1ccccn1`, the GI50 is 0.517 µM in the assay on SF-268 CNS; 0.126 µM with MOLT-4 leukemia; 3.43 µM in the assay with SNB-19 CNS; 0.201 µM in the assay on RPMI-8226 leukemia; 0.595 µM in the assay on EKVX NSCLC; 0.0353 µM in the assay with OVCAR-3 ovarian. Besides, the GI50 with MDA-MB-435 was 3.1 µM; with SK-MEL-2 melanoma it was 6.2 µM; in the assay on MALME-3M melanoma, 1.51 µM; with SW-620 colon, 0.341 µM. For the same compound, the TGI is greater than 100 µM in the assay on SF-268 CNS; greater than 100 µM in the assay on SNB-19 CNS; 1.7 µM in the assay with RPMI-8226 leukemia; greater than 100 µM with EKVX NSCLC; 19.4 µM in the assay on OVCAR-3 ovarian; greater than 100 µM in the assay with MDA-MB-435. Besides, the TGI in the assay with SK-MEL-2 melanoma, with MALME-3M melanoma and in the assay with SW-620 colon was greater than 100 µM each time.

As to `CNNC(=N\S(=O)(=O)c1cc(C)c(Cl)cc1SCc1ccccc1)/N=C/c1ccc([N+](=O)[O-])s1`, the GI50 with SF-268 CNS was greater than 100 µM; in the assay with MOLT-4 leukemia, greater than 100 µM; in the assay with SNB-19 CNS, greater than 100 µM; with RPMI-8226 leukemia, 0.422 µM; in the assay with EKVX NSCLC it was greater than 29.6 µM; with OVCAR-3 ovarian, greater than 44.1 µM. The GI50 is 18.5 µM in the assay on MDA-MB-435, greater than 100 µM with SK-MEL-2 melanoma, 1.18 µM with MALME-3M melanoma and 30.9 µM in the assay on SW-620 colon. Besides, the TGI in the assay on SF-268 CNS was greater than 100 µM; in the assay with MOLT-4 leukemia, greater than 100 µM; with SNB-19 CNS it was greater than 100 µM; in the assay with RPMI-8226 leukemia, greater than 45.3 µM; in the assay with EKVX NSCLC, greater than 100 µM; in the assay with OVCAR-3 ovarian it was greater than 100 µM. Besides, the TGI in the assay with MDA-MB-435 was greater than 100 µM; in the assay on SK-MEL-2 melanoma, greater than 100 µM; in the assay with MALME-3M melanoma, greater than 64.2 µM; with SW-620 colon, greater than 100 µM.

Regarding `O=[N+]([O-])c1nccn1CC(O)CN1CCCCC1` (centres undefined), the TGI with SF-268 CNS, with MOLT-4 leukemia, in the assay on SNB-19 CNS, in the assay with RPMI-8226 leukemia, in the assay with EKVX NSCLC and in the assay on OVCAR-3 ovarian was greater than 100 µM throughout. The TGI in the assay with MDA-MB-435, in the assay with SK-MEL-2 melanoma, with MALME-3M melanoma and with SW-620 colon was greater than 100 µM throughout.

In the case of `COC(=O)C(CCC(=O)CCl)N1C(=O)c2ccccc2C1=O` (centres undefined), the TGI was determined as 28.4 µM with SF-268 CNS; 6.94 µM in the assay with MOLT-4 leukemia; 37.1 µM with SNB-19 CNS; 20.7 µM in the assay on RPMI-8226 leukemia; 35.3 µM in the assay with EKVX NSCLC; 16.7 µM with OVCAR-3 ovarian. Besides, the TGI with MDA-MB-435 is 22 µM; in the assay on SK-MEL-2 melanoma it was 21.9 µM; in the assay with MALME-3M melanoma, 11.9 µM; in the assay on SW-620 colon, 15.6 µM.

In the case of `O=C(Nc1ccc(-n2ccc3c(NC(=O)c4ccccc4)ncnc32)cc1)c1cccc(C(F)(F)F)c1`, the GI50 in the assay on SF-268 CNS was 1.16 µM; in the assay with MOLT-4 leukemia, 0.493 µM; with SNB-19 CNS it was 2.13 µM; in the assay with RPMI-8226 leukemia, 1.6 µM; in the assay with EKVX NSCLC, 6.38 µM; with OVCAR-3 ovarian, 4.37 µM. In addition, the GI50 in the assay with MDA-MB-435 is 2.16 µM; with SK-MEL-2 melanoma, 1.47 µM; in the assay on MALME-3M melanoma, 9.75 µM; with SW-620 colon, 1.05 µM. The TGI in the assay with SF-268 CNS turned out to be 24.5 µM; with MOLT-4 leukemia it was 32.7 µM; in the assay on SNB-19 CNS it was 33.4 µM; in the assay with RPMI-8226 leukemia it was 33.3 µM; in the assay on EKVX NSCLC it was 22.7 µM; in the assay with OVCAR-3 ovarian, 20.9 µM. Besides, the TGI with MDA-MB-435 turned out to be 16.3 µM; in the assay on SK-MEL-2 melanoma it was 13.5 µM; in the assay on MALME-3M melanoma, 26.1 µM; in the assay on SW-620 colon, 18.8 µM.

For the compound `CC(C)c1nc(N(C)S(C)(=O)=O)nc(-c2ccc(F)cc2)c1/C=C/[C@@H](O)C[C@@H](O)CC(=O)O`, the GI50 is 28.3 µM with SF-268 CNS; greater than 100 µM in the assay on MOLT-4 leukemia; 48.2 µM with SNB-19 CNS; greater than 100 µM in the assay on RPMI-8226 leukemia; greater than 100 µM with EKVX NSCLC; greater than 100 µM in the assay with OVCAR-3 ovarian. Besides, the GI50 in the assay with MDA-MB-435 is 79.9 µM; in the assay with SK-MEL-2 melanoma, 26.2 µM; with MALME-3M melanoma, greater than 100 µM; in the assay with SW-620 colon, greater than 100 µM. Also, the TGI in the assay with SF-268 CNS, in the assay on MOLT-4 leukemia, with SNB-19 CNS, with RPMI-8226 leukemia, with EKVX NSCLC and in the assay with OVCAR-3 ovarian was greater than 100 µM throughout. Moreover, the TGI in the assay with MDA-MB-435, in the assay on SK-MEL-2 melanoma, in the assay on MALME-3M melanoma and in the assay on SW-620 colon was greater than 100 µM each time.

On to `Oc1c(Cl)cc(Cl)c2ccc(Cn3cc(-c4cc(C(F)(F)F)cc(C(F)(F)F)c4)nn3)nc12`, for which the GI50 in the assay with SF-268 CNS is 4.22 µM; in the assay with MOLT-4 leukemia, 0.823 µM; in the assay on SNB-19 CNS, 8.28 µM; in the assay on RPMI-8226 leukemia, 1.32 µM; in the assay on EKVX NSCLC it was 7.65 µM; in the assay on OVCAR-3 ovarian it was 1.28 µM. Further, the GI50 was 1.82 µM in the assay with MDA-MB-435, 2.71 µM in the assay on SK-MEL-2 melanoma, 1.47 µM in the assay with MALME-3M melanoma and 0.473 µM in the assay on SW-620 colon. The TGI in the assay with SF-268 CNS was 17.5 µM; in the assay with MOLT-4 leukemia, 5.91 µM; in the assay with SNB-19 CNS, 21.8 µM; in the assay on RPMI-8226 leukemia, 4.74 µM; with EKVX NSCLC it was 21 µM; in the assay with OVCAR-3 ovarian, 2.56 µM. The TGI in the assay on MDA-MB-435 amounted to 4.18 µM; with SK-MEL-2 melanoma it was 9.56 µM; in the assay with MALME-3M melanoma it was 3.21 µM; with SW-620 colon, 1.81 µM.

With `Cc1ccc2nc(-c3ccc(OCC(=O)N=Nc4c(O)[nH]c5ccccc45)cc3)[nH]c2c1`, the GI50 in the assay on SF-268 CNS is 3.54 µM; in the assay on MOLT-4 leukemia, 2.99 µM; in the assay with SNB-19 CNS, 4.01 µM; in the assay on RPMI-8226 leukemia, 3.44 µM; in the assay on EKVX NSCLC, 28 µM; in the assay on OVCAR-3 ovarian, 1.97 µM. Besides, the GI50 was 1.95 µM in the assay on MDA-MB-435, 3.71 µM in the assay with SK-MEL-2 melanoma, 2.1 µM in the assay on MALME-3M melanoma and 2.02 µM in the assay with SW-620 colon. Besides, the TGI in the assay with SF-268 CNS was 14.4 µM; in the assay on MOLT-4 leukemia it was 8.87 µM; in the assay on SNB-19 CNS, 15.9 µM; in the assay with RPMI-8226 leukemia it was 17.8 µM; in the assay with EKVX NSCLC it was greater than 100 µM; with OVCAR-3 ovarian, 3.79 µM. The TGI in the assay with MDA-MB-435 came out at 3.88 µM; with SK-MEL-2 melanoma, 14.7 µM; in the assay on MALME-3M melanoma, 4.6 µM; in the assay with SW-620 colon, 4.32 µM.

Take `[O-][N+]1(CC[N+]2([O-])CCCCC2)CCCCC1`: the TGI in the assay with SF-268 CNS, in the assay with MOLT-4 leukemia, in the assay with SNB-19 CNS, in the assay with RPMI-8226 leukemia, with EKVX NSCLC and with OVCAR-3 ovarian was greater than 100 µM throughout. For the same compound, the TGI in the assay with MDA-MB-435, with SK-MEL-2 melanoma, in the assay on MALME-3M melanoma and in the assay with SW-620 colon was greater than 100 µM throughout.

Take `Cc1cc(Cl)ccc1OCC(=O)Nc1nc(N)nc(N)n1`: the TGI with SF-268 CNS, in the assay on MOLT-4 leukemia, in the assay with SNB-19 CNS, in the assay on RPMI-8226 leukemia, with EKVX NSCLC and with OVCAR-3 ovarian was greater than 100 µM throughout. In addition, the TGI in the assay on MDA-MB-435, in the assay with SK-MEL-2 melanoma, with MALME-3M melanoma and in the assay with SW-620 colon was greater than 100 µM throughout.

`CCOC(=O)c1c(C)n(Cc2ccc(Cl)cc2Cl)c2c1cc1oc(=O)c(=O)n3cnc2c13`: the GI50 is 16.3 µM in the assay with SF-268 CNS; 3.99 µM in the assay on MOLT-4 leukemia; 17.4 µM with SNB-19 CNS; 6.32 µM in the assay on RPMI-8226 leukemia; 23.2 µM with EKVX NSCLC; 14.4 µM with OVCAR-3 ovarian. For the same compound, the GI50 in the assay on MDA-MB-435 is 16.3 µM; with SK-MEL-2 melanoma, 22.5 µM; in the assay with MALME-3M melanoma, 10.4 µM; in the assay with SW-620 colon, 22.1 µM. Also, the TGI with SF-268 CNS is 33.3 µM; in the assay on MOLT-4 leukemia it was 20.7 µM; in the assay with SNB-19 CNS, 32.1 µM; in the assay with RPMI-8226 leukemia, 21.8 µM; with EKVX NSCLC, 43.3 µM; in the assay with OVCAR-3 ovarian it was 31.9 µM. Moreover, the TGI in the assay with MDA-MB-435 is 30.9 µM; in the assay on SK-MEL-2 melanoma it was 56.5 µM; in the assay on MALME-3M melanoma, 25.5 µM; with SW-620 colon, 40.5 µM.
